Results reported in patent US6630570B1, “Short-chain peptide-dye conjugates as contrast media for optical diagnosis” (priority 1999, dated 2003).
“Also recorded” adds a separate entry of the source. No end group written: not given here.

Experiments:
HT29-tumor = assay: In-vivo fluorescence imaging in tumor-carrying nude mice, HT29 tumor; conditions: 0.1 μmol/kg intravenously, one hour after administration
Excerpt: The imaging properties of the compounds according to the invention were studied in vivo after injection into tumor-carrying nude mice. […] The fluorescence of the substances was excited by irradiation of animals with near-infrared light of wavelength 640 nm (indodicarbocyanines) or 740 nm (indotricarbocyanines), which was produced with an Nd:YAG laser. The fluorescence radiation was detected at a wavelength of >700 nm or >800 nm by an intensified CCD-camera, and the fluorescence images were stored digitally.

RIN38-VIP1-cells = assay: Cell imaging by fluorescence microscopy, RIN38-VIP1 cells; assay type: cell-based, rat; conditions: 10 μM
Method: (§1) The binding and imaging of the compounds according to the invention were studied in vitro in human tumor cells, and the receptors for vaso-active intestinal peptide and/or somatostatin and/or neurotensin were expressed. To this end, 5×10^5 tumor cells were incubated in 1.5 ml of medium, which contained the test substance. Different concentrations of the substances (10 nM-10 μM) were used, and the incubation period varied (1 minute-24 hours). After the incubation, the cells were set, and microscopic preparations were produced. The evaluation was carried out on a Zeiss Axiovert 135-fluorescence microscope, which was equipped with a Cy7-(Exciter HQ 710/70 nm, emitter 810/90 nm, beam splitter 750 nm LP), Cy5-(exciter 575-625 nm, emitter 660-710 nm BP, beam splitter 645 nm) and Cy3-filter set (exciter 546/12 nm, emitter 590 nm LP, beam splitter 580 nm). From all preparations, white light and fluorescence images were recorded with a CCD-camera (Visitron RTE/CCD-576) and digitally stored.

HT29 cells = assay: Cell imaging by fluorescence microscopy, HT29 cells; assay type: cell-based, human; conditions: 10 μM, 30 minutes of incubation, Cy7-filter set
Method: as §1

Substance: (ξ-Amino-indotricarbocyanine)-Lys^25-VIP (14-25)-conjugate (RKQMAVKKYLNK(indotricarbocyanine)) [conjugate 24]
- increase in fluorescence intensity in the tumor relative to the contralateral flank (HT29-tumor; HT29 tumor in right rear flank): ~1.5 fold
- fluorescence outside the tumor (remainder of the body, kidneys) (HT29-tumor; HT29 tumor mouse): increased fluorescence signal in the kidneys
- fluorescence image of the cells (pattern, correlation with white light image) (RIN38-VIP1-cells; Cy7-filter set): homogeneous, intracellular near-nucleus fluorescence

Substance: Indocarbocyanine-VIP (1-28)-conjugate (HSDAVFTDNYTRLRKQMAVKKYLNSILN; ends and bridges not checked; also: indocarbocyanine conjugate, position not given here) [conjugate 14]
- fluorescence image of the cells (pattern) (RIN38-VIP1-cells; Cy3-filter set): intracellular fluorescence areas with a vesicular pattern in the membrane area of the cell

Substance: Indotricarbocyanine-D-VIP (14-24)-conjugate (RKQMAVKKYLN; not fully specified; also: indotricarbocyanine dye conjugate, attachment site not given here) [conjugate 25]
- fluorescence image of the cells (pattern, correlation with white light image) (HT29 cells): Fluorescence dispersed homogeneously over the cells, good correlation with the white light image

Substance: Indotricarbocyanine-VIP (1-28)-conjugate (HSDAVFTDNYTRLRKQMAVKKYLNSILN; ends and bridges not checked; also: indotricarbocyanine conjugate, position not given here) [conjugate 16]
- fluorescence image of the cells (pattern, correlation with white light image) (HT29 cells): largely homogeneous fluorescence dispersed over the cells; also recorded: areas of increased signals were visible, which can be associated with vesicular compartments
